Results: ChEMBL document CHEMBL4665836, “Overcoming β-Lactam resistance in Pseudomonas aeruginosa using non-canonical tobramycin-based antibiotic adjuvants” (2020)

Assays:
Type in all cases: functional
Pseudomonas aeruginosa [1] = assay: Potentiation of imipenem-induced antibacterial activity against carbapenem and colistin-resistant Pseudomonas aeruginosa 91433 clinical isolate assessed as imipenem MIC at 8 uM by checkerboard assay (reference value: 8 ug/ml)
Pseudomonas aeruginosa [2] = assay: Antibacterial activity against Pseudomonas aeruginosa PAO200 harboring mexAB-oprM efflux deficient mutant
Pseudomonas aeruginosa [3] = assay: Potentiation of ceftazidime-induced antibacterial activity against carbapenem-resistant Pseudomonas aeruginosa 107092 clinical isolate assessed as ceftazidime MIC at 8 uM by checkerboard assay (reference value: 128 ug/ml)
Pseudomonas aeruginosa [4] = assay: Potentiation of imipenem-induced antibacterial activity against carbapenem-resistant Pseudomonas aeruginosa 107092 clinical isolate assessed as imipenem MIC at 8 uM by checkerboard assay (reference value: 64 ug/ml)
Pseudomonas aeruginosa [5] = assay: Potentiation of ceftazidime-induced antibacterial activity against carbapenem-resistant Pseudomonas aeruginosa 109084 clinical isolate assessed as fold reduction in ceftazidime MIC at 8 uM in presence of beta-lactamase inhibitor, avi-bactam
Pseudomonas aeruginosa [6] = assay: Potentiation of imipenem-induced antibacterial activity against carbapenem-resistant Pseudomonas aeruginosa 86052 clinical isolate assessed as fold reduction in imipenem MIC at 8 uM in presence of beta-lactamase inhibitor, rele-bactam
Pseudomonas aeruginosa [7] = assay: Potentiation of aztreonam-induced antibacterial activity against carbapenem-resistant Pseudomonas aeruginosa 109084 clinical isolate assessed as aztreonam MIC at 8 uM by checkerboard assay (reference value: 64 ug/ml)
Pseudomonas aeruginosa [8] = assay: Potentiation of ceftazidime-induced antibacterial activity against carbapenem-resistant Pseudomonas aeruginosa 86052 clinical isolate assessed as ceftazidime MIC at 8 uM by checkerboard assay (reference value: 64 ug/ml)
Pseudomonas aeruginosa [9] = assay: Potentiation of aztreonam-induced antibacterial activity against carbapenem-resistant Pseudomonas aeruginosa 108590 clinical isolate assessed as aztreonam MIC at 8 uM by checkerboard assay (reference value: 32 ug/ml)
Pseudomonas aeruginosa [10] = assay: Potentiation of ceftazidime-induced antibacterial activity against carbapenem-resistant Pseudomonas aeruginosa 259-96918 clinical isolate expressing metallo-beta-lactamase assessed as ceftazidime MIC at 8 uM by checkerboard assay (reference value: 512 ug/ml)
Pseudomonas aeruginosa [11] = assay: Potentiation of imipenem-induced antibacterial activity against carbapenem-resistant Pseudomonas aeruginosa 86052 clinical isolate assessed as imipenem MIC at 8 uM by checkerboard assay (reference value: 32 ug/ml)
Pseudomonas aeruginosa [12] = assay: Potentiation of imipenem-induced antibacterial activity against wild-type Pseudomonas aeruginosa PAO1 assessed as imipenem MIC at 8 uM by checkerboard assay (reference value: 4 ug/ml)
Pseudomonas aeruginosa [13] = assay: Potentiation of imipenem-induced antibacterial activity against carbapenem-resistant Pseudomonas aeruginosa 260-97103 clinical isolate assessed as imipenem MIC at 8 uM by checkerboard assay (reference value: 16 ug/ml)
Pseudomonas aeruginosa [14] = assay: Potentiation of imipenem-induced antibacterial activity against carbapenem-resistant Pseudomonas aeruginosa PAO200 harboring mexAB-oprM efflux deficient mutant assessed as imipenem MIC at 8 uM by checkerboard assay (reference value: 4 ug/ml)
Pseudomonas aeruginosa [15] = assay: Potentiation of aztreonam-induced antibacterial activity against wild type Pseudomonas aeruginosa PAO1 assessed as aztreonam MIC at 8 uM by checkerboard assay (reference value: 4 ug/ml)
Pseudomonas aeruginosa [16] = assay: Potentiation of aztreonam-induced antibacterial activity against carbapenem-resistant Pseudomonas aeruginosa PAO200 harboring mexAB-oprM efflux deficient mutant assessed as aztreonam MIC at 8 uM by checkerboard assay (reference value: 0.25 ug/ml)
Pseudomonas aeruginosa [17] = assay: Potentiation of imipenem-induced antibacterial activity against carbapenem-resistant Pseudomonas aeruginosa 262-101856 clinical isolate assessed as imipenem MIC at 8 uM by checkerboard assay (reference value: 32 ug/ml)
Pseudomonas aeruginosa [18] = assay: Potentiation of ceftazidime-induced antibacterial activity against carbapenem-resistant Pseudomonas aeruginosa 107092 clinical isolate assessed as fold reduction in ceftazidime MIC at 8 uM in presence of beta-lactamase inhibitor, avi-bactam
Pseudomonas aeruginosa [19] = assay: Potentiation of ceftazidime-induced antibacterial activity against carbapenem-resistant Pseudomonas aeruginosa 101885 clinical isolate assessed as ceftazidime MIC at 8 uM by checkerboard assay (reference value: 8 ug/ml)
Pseudomonas aeruginosa [20] = assay: Potentiation of ceftazidime-induced antibacterial activity against wild type Pseudomonas aeruginosa PAO1 assessed as ceftazidime MIC at 8 uM by checkerboard assay (reference value: 2 ug/ml)
Pseudomonas aeruginosa [21] = assay: Potentiation of aztreonam-induced antibacterial activity against carbapenem-resistant Pseudomonas aeruginosa 107092 clinical isolate assessed as aztreonam MIC at 8 uM by checkerboard assay (reference value: 64 ug/ml)
Pseudomonas aeruginosa [22] = assay: Potentiation of aztreonam-induced antibacterial activity against carbapenem-resistant Pseudomonas aeruginosa 86052 clinical isolate assessed as aztreonam MIC at 8 uM by checkerboard assay (reference value: 64 ug/ml)
Pseudomonas aeruginosa [23] = assay: Potentiation of ceftazidime-induced antibacterial activity against carbapenem-resistant Pseudomonas aeruginosa 100036 clinical isolate assessed as ceftazidime MIC at 8 uM by checkerboard assay (reference value: 8 ug/ml)
Pseudomonas aeruginosa [24] = assay: Potentiation of aztreonam-induced antibacterial activity against carbapenem and colistin-resistant Pseudomonas aeruginosa 114228 clinical isolate assessed as aztreonam MIC at 8 uM by checkerboard assay (reference value: 32 ug/ml)
Pseudomonas aeruginosa [25] = assay: Potentiation of ceftazidime-induced antibacterial activity against carbapenem-resistant Pseudomonas aeruginosa 108590 clinical isolate assessed as fold reduction in ceftazidime MIC at 8 uM in presence of beta-lactamase inhibitor, avi-bactam
Pseudomonas aeruginosa [26] = assay: Potentiation of aztreonam-induced antibacterial activity against carbapenem-resistant Pseudomonas aeruginosa 108590 clinical isolate assessed as fold reduction in aztreonam MIC at 8 uM in presence of beta-lactamase inhibitor, avi-bactam
Pseudomonas aeruginosa [27] = assay: Potentiation of imipenem-induced antibacterial activity against carbapenem-resistant Pseudomonas aeruginosa 259-96918 clinical isolate expressing MBL assessed as imipenem MIC at 8 uM by checkerboard assay (reference value: 64 ug/ml)
Pseudomonas aeruginosa [28] = assay: Potentiation of imipenem-induced antibacterial activity against carbapenem-resistant Pseudomonas aeruginosa 108590 clinical isolate assessed as fold reduction in imipenem MIC at 8 uM in presence of beta-lactamase inhibitor, rele-bactam
Pseudomonas aeruginosa [29] = assay: Potentiation of ceftazidime-induced antibacterial activity against carbapenem-resistant Pseudomonas aeruginosa PAO200 harboring mexAB-oprM efflux deficient mutant assessed as ceftazidime MIC at 8 uM by checkerboard assay (reference value: 1 ug/ml)
Pseudomonas aeruginosa [30] = assay: Potentiation of ceftazidime-induced antibacterial activity against carbapenem-resistant Pseudomonas aeruginosa 88949 clinical isolate assessed as ceftazidime MIC at 8 uM by checkerboard assay (reference value: 64 ug/ml)
Pseudomonas aeruginosa [31] = assay: Potentiation of aztreonam-induced antibacterial activity against carbapenem and colistin-resistant Pseudomonas aeruginosa 101243 clinical isolate assessed as aztreonam MIC at 8 uM by checkerboard assay (reference value: 32 ug/ml)
Pseudomonas aeruginosa [32] = assay: Potentiation of imipenem-induced antibacterial activity against wild type Pseudomonas aeruginosa PAO1 assessed as fold reduction in imipenem MIC at 8 uM
Pseudomonas aeruginosa [33] = assay: Potentiation of imipenem-induced antibacterial activity against carbapenem-resistant Pseudomonas aeruginosa 107092 clinical isolate assessed as fold reduction in imipenem MIC at 8 uM in presence of beta-lactamase inhibitor, rele-bactam

| Structure (SMILES) | MIC (Pseudomonas aeruginosa [1]) [mg/L] | MIC (Pseudomonas aeruginosa [2]) [mg/L] | MIC (Pseudomonas aeruginosa [3]) [mg/L] | MIC (Pseudomonas aeruginosa [4]) [mg/L] | fold change (FC) (Pseudomonas aeruginosa [5]) | fold change (FC) (Pseudomonas aeruginosa [6]) | MIC (Pseudomonas aeruginosa [7]) [mg/L] | MIC (Pseudomonas aeruginosa [8]) [mg/L] | MIC (Pseudomonas aeruginosa [11]) [mg/L] | MIC (Pseudomonas aeruginosa [12]) [mg/L] | MIC (Pseudomonas aeruginosa [13]) [mg/L] | MIC (Pseudomonas aeruginosa [14]) [mg/L] | MIC (Pseudomonas aeruginosa [17]) [mg/L] | fold change (FC) (Pseudomonas aeruginosa [18]) | fold change (FC) (Pseudomonas aeruginosa [25]) | fold change (FC) (Pseudomonas aeruginosa [26]) | MIC (Pseudomonas aeruginosa [27]) [mg/L] | fold change (FC) (Pseudomonas aeruginosa [28]) | fold change (FC) (Pseudomonas aeruginosa [32]) | fold change (FC) (Pseudomonas aeruginosa [33]) | other results |
| --- | --- | --- | --- | --- | --- | --- | --- | --- | --- | --- | --- | --- | --- | --- | --- | --- | --- | --- | --- | --- | --- |
| Cl.Cl.Cl.Cl.Cl.Cl.NC[C@H]1O[C@H](O[C@H]2[C@H](OCCCCCCCCCCCCN3CCN(c4cc5c(cc4F)c(=O)c(C(=O)O)cn5C4CC4)CC3)[C@@H](O[C@H]3O[C@H](CO)[C@@H](O)[C@H](N)[C@H]3O)[C@H](N)C[C@@H]2N)[C@H](N)C[C@@H]1O | 2 | 4 | 16 | 8 | 16 | 16 | 16 | 32 | 8 | 0.5 | 2 | 1 | 4 | 16 | 16 | 16 | 16 | 16 | 2 | 16 | MIC (Pseudomonas aeruginosa [9]): 0.5 mg/L; MIC (Pseudomonas aeruginosa [10]): 64 mg/L; MIC (Pseudomonas aeruginosa [15]): 0.25 mg/L; MIC (Pseudomonas aeruginosa [16]): 0.03 mg/L; MIC (Pseudomonas aeruginosa [19]): 1 mg/L; MIC (Pseudomonas aeruginosa [20]): 0.25 mg/L; MIC (Pseudomonas aeruginosa [21]): 8 mg/L; MIC (Pseudomonas aeruginosa [22]): 8 mg/L; MIC (Pseudomonas aeruginosa [23]): 2 mg/L; MIC (Pseudomonas aeruginosa [24]): 2 mg/L; MIC (Pseudomonas aeruginosa [29]): 0.06 mg/L; MIC (Pseudomonas aeruginosa [30]): 32 mg/L; MIC (Pseudomonas aeruginosa [31]): 4 mg/L |
| NC[C@H]1O[C@H](O[C@H]2[C@H](OCCCCCCCCN3CCCNCCNCCCNCC3)[C@@H](O[C@H]3O[C@H](CO)[C@@H](O)[C@H](N)[C@H]3O)[C@H](N)C[C@@H]2N)[C@H](N)C[C@@H]1O.O=C(O)C(F)(F)F.O=C(O)C(F)(F)F.O=C(O)C(F)(F)F.O=C(O)C(F)(F)F.O=C(O)C(F)(F)F.O=C(O)C(F)(F)F.O=C(O)C(F)(F)F.O=C(O)C(F)(F)F.O=C(O)C(F)(F)F | 8 | > 128 |  | 16 | 16 | 16 |  |  | 16 | 2 | 8 | 2 | 16 | 16 | 16 | 16 | 64 | 16 | 2 | 16 |  |
| NC[C@H]1O[C@H](O[C@H]2[C@H](OCCCCCCCCN3CCCNCCNCCCNCC3)[C@@H](O)[C@H](N)C[C@@H]2N)[C@H](N)C[C@@H]1O.O=C(O)C(F)(F)F.O=C(O)C(F)(F)F.O=C(O)C(F)(F)F.O=C(O)C(F)(F)F.O=C(O)C(F)(F)F.O=C(O)C(F)(F)F.O=C(O)C(F)(F)F.O=C(O)C(F)(F)F | 4 | > 128 | 32 | 32 | 16 | 16 | 32 | 64 | 16 | 4 | 8 | 2 | 16 | 16 | 16 | 16 | 32 | 16 | 2 | 16 | MIC (Pseudomonas aeruginosa [9]): 8 mg/L; MIC (Pseudomonas aeruginosa [10]): 128 mg/L; MIC (Pseudomonas aeruginosa [15]): 0.5 mg/L; MIC (Pseudomonas aeruginosa [16]): 0.06 mg/L; MIC (Pseudomonas aeruginosa [19]): 2 mg/L; MIC (Pseudomonas aeruginosa [20]): 0.5 mg/L; MIC (Pseudomonas aeruginosa [21]): 32 mg/L; MIC (Pseudomonas aeruginosa [22]): 64 mg/L; MIC (Pseudomonas aeruginosa [23]): 4 mg/L; MIC (Pseudomonas aeruginosa [24]): 16 mg/L; MIC (Pseudomonas aeruginosa [29]): 0.13 mg/L; MIC (Pseudomonas aeruginosa [30]): 64 mg/L; MIC (Pseudomonas aeruginosa [31]): 2 mg/L |
